Reference: article PMC5336612, “Therapeutic effects of different doses of polyethylene glycosylated porcine glucagon-like peptide-2 on ulcerative colitis in male rats” (BMC Gastroenterology, 2017)
Where “and” joins values, the source holds several entries; their conditions need not be identical. Identical values can stand only once. Where no end group is shown, it is not given here.

Experiments:
[1] = system: colon of DSS colitis rats; assay: Colonic morphology and colonic damage score (histology); assay type: in vivo, rat; conditions: for Colonic damage score (CDS) of colon / Colon morphological structures: DSS colitis rats; for Colonic damage score (CDS) of colon: compared with DSS group, Fig. 1f; for colonic damage score: extent / colonic damage score: inflammation: grade 0-3; for colonic damage score: extent / colonic damage score: inflammation / colonic damage score: percent involvement / colonic damage score: crypt demage: individual rats, raw data; for colonic damage score: percent involvement: grade (1) 1-25% to (4) 76-100%; for colonic damage score: crypt demage: scale 0-4
Protocol: Histology was prepared as previously described. The paraffin-embedded sections were cut at 4 μm thickness and stained with haematoxylin and eosin. Duodenum villus-plus-crypt height was imaged using an Olympus DP-71 digital camera, and quantification was performed using an image processing system. Approximately 12 longitudinally oriented villi were measured from each H&E-stained section to make n = 1. All measurements were performed in a blinded manner. Colonic damage score (CDS), was evaluated in a blinded manner in tissue sections based on a grade scale ranging from 0 to 3 to measure the amount and depth of inflammation. The amount of crypt damage or regeneration was measured in a scale of 0–4, as indicated in Dieleman et al.. These changes were also quantified in terms of the percentage involvement of the disease process: (1) 1–25%, (2) 26–50%, (3) 51–75% and (4) 76–100%. Each section was separately scored for each feature by establishing the product of the grade for that feature and the percentage involvement. The sum of the products of the four scores was the CDS for each rat.

[2] = system: dipeptidyl peptidase-IV (DPP-IV); conditions: in DPP-IV in vitro; cited from earlier work
Claudin-1 = assay: Real-time PCR expression in colon; assay type: in vivo, rat; conditions: DSS colitis rats, compared with DSS group, RT-PCR
Protocol: (§1) Total RNA was isolated using RNAiso Plus kits following the manufacturers’ instructions. A 2 μL aliquot of the total RNA was used for first-strand cDNA synthesis using PrimeScript® RT-reagent Kit with gDNA Eraser. Real-time PCR was carried out with ABI plus one (Life Technologies, Carlsbad, CA, USA) using SYBR Premix Ex TaqTM. The primers used were in Table 1. RT-PCR analysis was performed with an ABI Step One Plus Real-Time PCR System (Applied Biosystems, Inc.) using SYBR® Premix Ex TaqTM. PCR reactions were performed in triplicate under the following conditions: 95 °C for 30 s; 40 cycles of 95 °C for 5 s and 60 °C for 30 s. Fluorescent data for quantification were collected at the end of each cycle. Melting curve analysis was performed at 55–95 °C to verify the single product generation at the end of the assay. Standard curves were generated based on the data obtained from the standards of the 2–2^−6 dilution series template. Standard curve analysis was performed by using Step One Software (v2.2, Applied Biosystems, Inc.). Data were normalised to GADPH using the 2^−△△Ct quantitation method.

IL-1 = assay: Real-time PCR expression in colon; assay type: in vivo, rat; conditions: DSS colitis rats, compared with DSS group, RT-PCR
Protocol: as §1

TNF-α = assay: Real-time PCR expression in colon; assay type: in vivo, rat; conditions: DSS colitis rats, compared with DSS group, RT-PCR
Protocol: as §1

IL-7 = assay: Real-time PCR expression in colon; assay type: in vivo, rat; conditions: DSS colitis rats, compared with DSS group, RT-PCR
Protocol: as §1

ZO-1 = assay: Real-time PCR expression in colon; assay type: in vivo, rat; conditions: DSS colitis rats; 100 nmol/kg i.p. daily d1-6 (H); compared with DSS group; RT-PCR, 2^-ΔΔCt vs GADPH
Protocol: as §1

IL-10 = assay: Real-time PCR expression in colon; assay type: in vivo, rat; conditions: DSS colitis rats, compared with DSS group, RT-PCR
Protocol: as §1

IFN-γ = assay: Real-time PCR expression in colon; assay type: in vivo, rat; conditions: DSS colitis rats; 25 nmol/kg i.p. daily d1-6 (M); compared with DSS group; RT-PCR
Protocol: as §1

IL-6 = assay: Real-time PCR expression in colon; assay type: in vivo, rat; conditions: DSS colitis rats, among the five groups, RT-PCR
Protocol: as §1

Occludin = assay: Real-time PCR expression in colon; assay type: in vivo, rat; conditions: DSS colitis rats, compared with DSS group, RT-PCR
Protocol: as §1

[3] = 12.5 nmol/kg i.p. daily d1-6 (L)
[4] = 100 nmol/kg i.p. daily d1-6 (H)

polyethylene glycosylated porcine glucagon-like peptide-2 (HGDGSFSDEMNTVLDNLATRDFINWLLHTKITDSL; also: mono-PEGylated with mPEG5k-SPA, site not given here; UniProt P01274 146-180, looked up, variant A2G) [PEG–pGLP-2, mono-PEGylated p[Gly^2]GLP-2 conjugate prepared with mPEG5k-SPA; long-acting form of pGLP-2]
Colonic damage score (CDS) of colon [1, 3]: significantly (p < 0.05) decreased | Colon morphological structures ([1]; 25 nmol/kg i.p. daily d1-6 (M), Fig. 1d): almost normal with no damage | Colonic damage score (CDS) of colon ([1]; 25 nmol/kg i.p. daily d1-6 (M)): significantly (p < 0.05) decreased | Colon morphological structures ([1]; 100 nmol/kg i.p. daily d1-6 (H), Fig. 1e): almost normal with no damage | Colonic damage score (CDS) of colon [1, 4]: significantly (p < 0.05) decreased | colonic damage score: extent [1, 3]: 0.00 and 1.00 | colonic damage score: inflammation [1, 3]: 1.00 and 2.00 | colonic damage score: extent ([1]; 25 nmol/kg i.p. daily d1-6 (M)): 0.00 and 1.00 | colonic damage score: inflammation ([1]; 25 nmol/kg i.p. daily d1-6 (M)): 2.00 and 1.00 | colonic damage score: extent [1, 4]: 0.00 | colonic damage score: inflammation [1, 4]: 1.00 and 2.00 | colonic damage score: percent involvement [1, 3]: 0.00 and 1.00 | colonic damage score: percent involvement ([1]; 25 nmol/kg i.p. daily d1-6 (M)): 0.00 and 1.00 | colonic damage score: percent involvement [1, 4]: 0.00 and 1.00 | colonic damage score: crypt demage [1, 3]: 0.00 and 1.00 | colonic damage score: crypt demage ([1]; 25 nmol/kg i.p. daily d1-6 (M)): 0.00 and 3.00 and 1.00 | colonic damage score: crypt demage [1, 4]: 0.00 and 3.00 | half-life (t1/2) longer than that of pGLP-2 [2]: 16 fold | Expression of claudin-1 in colon (Claudin-1; 25 nmol/kg i.p. daily d1-6 (M)): significantly (p < 0.05) decreased | Expression of claudin-1 in colon (Claudin-1; [4]): significantly (p < 0.05) decreased | Expression of IL-1 in colon (IL-1; [3]): significantly (p < 0.05) decreased | Expression of IL-1 in colon (IL-1; 25 nmol/kg i.p. daily d1-6 (M)): significantly (p < 0.05) decreased | Expression of IL-1 in colon (IL-1; [4]): significantly (p < 0.05) decreased | Expression of TNF-α in colon (TNF-α; [3]): significantly (p < 0.05) decreased | Expression of TNF-α in colon (TNF-α; 25 nmol/kg i.p. daily d1-6 (M)): significantly (p < 0.05) decreased | Expression of TNF-α in colon (TNF-α; [4]): significantly (p < 0.05) decreased | Expression of IL-7 in colon (IL-7; [3]): significantly (p < 0.05) decreased | Expression of IL-7 in colon (IL-7; 25 nmol/kg i.p. daily d1-6 (M)): significantly (p < 0.05) decreased | Expression of IL-7 in colon (IL-7; [4]): significantly (p < 0.05) decreased | Expression of ZO-1 in colon (ZO-1): significantly (p < 0.05) increased | Expression of IL-10 in colon (IL-10; [3]): significantly (p < 0.05) decreased | Expression of IL-10 in colon (IL-10; 25 nmol/kg i.p. daily d1-6 (M)): significantly (p < 0.05) decreased | Expression of IFN-γ in colon (IFN-γ): significantly (p < 0.05) decreased | Expression of IL-6 in colon (IL-6; [3]): No significant differences | Expression of IL-6 in colon (IL-6; 25 nmol/kg i.p. daily d1-6 (M)): No significant differences | Expression of IL-6 in colon (IL-6; [4]): No significant differences | Expression of occludin in colon (Occludin; 25 nmol/kg i.p. daily d1-6 (M)): significantly (p < 0.05) increased | Expression of occludin in colon (Occludin; [4]): significantly (p < 0.05) increased
